Experimental data from patent US20240133884A1, “COMPOSITIONS AND METHODS FOR DETECTING TRYPANOSOMA CRUZI INFECTION” (University of Georgia Research Foundation, Inc., priority 2022, published 2024).
Entries after “also recorded” stand apart in the source; their conditions may differ.

What was measured:
T. cruzi = test system: T. cruzi
Protocol: A total of 22 rhesus macaques that had been confirmed to be serologically- and PCR-positive for T. cruzi were utilized in these studies. Using 19 animals in the treatment group provided 85% power of detecting 100% efficacy. The 19 animals were treated with a 30 mg/kg dose of AN15368 delivered in food treats once a day for 60 days. The remaining three animals on the study were maintained as untreated control animals and received food treats but were not dosed with AN15368.
The selected dose of 30 mg/kg in NHP was determined based upon the following rationale. […] Under light-anesthesia/sedation, peripheral blood samples were collected from each animal prior to treatment and at 7 time points following. Blood analysis (CBC and serum chemistry assays) and physical exams to evaluate the health of the study animals were performed on each animal prior to the beginning of the study and also at three time points during the treatment protocol.
Blood samples from each macaque were collected at various time points and processed for quantification of T. cruzi DNA by real-time qPCR. Between 8-ml of whole blood collected in EDTA anticoagulant tubes was subjected to DNA extraction using the Omega E.Z.N.A. Blood DNA Maxi Kit (Omega Bio-Tek), following the manufacturer's instructions for up to 10 ml whole blood and using a total of 650 μl of elution buffer. Each round of extractions included a negative (no-template) control comprised of 10 ml PBS. The concentration of DNA in the eluted solution was quantified after each extraction using an Epoch microplate spectrophotometer (BioTek).
DNA from each sample was then subjected to a series of two qPCR assays for detection of T. cruzi satellite DNA. […] Positive (DNA extracted from T. cruzi Sylvio X10 clone 4, American Type Culture Collection, ATCC #50800, known concentration 1.7×10^−3 parasite equivalents) and negative (water) controls were included in each PCR plate for both assays. C1000 Touch Bio-Rad CFX96 real-time PCR detection system was used for both assays under the following cycling conditions: (i) initial denaturation, 95°, 3 min; (ii) denaturation, 95° C., 15 s; (iii) annealing, 58° C., 1 min; (iv)×50 cycles. FAM and VIC channels were selected for each read.
Frozen tissues were screened for T. cruzi DNA using 8 mm biopsies (Sklar instruments #96-1130), collecting 3 to 10 individual ˜100 μl tissue punches for each tissue type and one of more pooled sample consisting of five punches from different areas of the tissue, totaling ˜500 μl per pool. The tissues sampled included liver, heart, fat, esophagus, quadricep, bicep, large intestine, and brain, as well as tongue and spleen in a few instances. Two individual and one pooled sample of tissues from an uninfected macaque was collected for each sampling batch. DNA from macaque tissue was extracted and analyzed as previously described (Bustamante, et al., Sci Transl Med 12 (2020)) with the exceptions that the purification was scaled up to accommodate the larger amount of tissue in the pooled samples and the range for the standards was 2.6×10^2-2.6×10^−3 parasite equivalents using the kDNA minicircle S35 and S36 primers.

anti-T. cruzi antibodies = assay: Luminex-based multiplex serological analysis in macaques; format: in vivo, rhesus macaque (Macaca mulatta); conditions: treated macaques, over 42 months after end of treatment
Text: For a number of smaller proteins, fusions of up to 2 individual genes are employed for some target proteins in order to expand the array of antibodies being detected while controlling costs and complexity of the assay. (TritrypDb.org identifiers: Tc1=fusion of TcBrA4_0116860 and TcYC6_0028190; Tc2=fusion of TcBrA4_0088420 and TcBrA4_0101960; Tc3=fusion of TcBrA4_0104680 and TcBrA4_0101980; Tc4=fusion of TcBrA4_0028480 and TcBrA4_0088260; Tc5=fusion of TcYC6_0100010 and TcBrA4_0074300; Tc7=fusion of TcYC6_0083710 and TcBrA4_0130080; Tc8=TcYC6_0037170; Tc11=TcYC6_0124160; Tc17=fusion of TcBrA4_0028230 and TcBrA4_0029760; Kn107=TcCLB.508355.250; G10=TcCLB.504199.20). Macaque antibody binding to individual beads in the Multiplex assays was detected with donkey anti-human IgG (H+L) conjugated to phycoerythrin (Jackson ImmunoResearch) in a 1:200 dilution.

T. cruzi mRNA = assay: RNA-Seq of infected Vero cells: parasite mRNA relative to host cell mRNA; format: cell-based, Trypanosoma cruzi; conditions: as early as 6 hrs after addition (FIG. 5C)
Protocol: Vero cells (10^6) were infected with 10^7 CL strain trypomastigotes of T. cruzi for 2 days before treating with either 5 uM benznidazole or 30 nM AN14353. The drug concentration used for treatment was set at 5 times the IC50. Samples were collected at several time points for RNA extraction as previously described (Minning, et al., BMC genomics 10, 370 (2009)). rRNA-depleted RNA library construction and RNA sequencing using Illumina Nextseq 75PE was carried out by Georgia Genomics and Bioinformatics Core (GGBC, University of Georgia, Georgia). Illumina reads with mean quality lower than 30 (Phred Score based) were removed from analysis, then mapped to CL Brener genome (TritrypDB release-33) and African green monkey genome (Osada, et al., DNA Res 21, 673-683 (2014)) using the HiSAT software package v0.1.6^50 with default parameters. The mapping rate was quantified by HTseq v0.6.1 (Anders, et al., Bioinformatics 31, 166-169 (2015)).

[1] = macaques, 30 mg/kg once a day for 60 days, post-treatment time points, 30 mg/kg

Structure (SMILES) | T. cruzi DNA by PCR in post-necropsy tissues (T. cruzi; 9 treated macaques, 84-99 sample sites/animal) | overall safety / toxicity (T. cruzi; 60 day course of treatment in NHPs) | adverse events (T. cruzi; in vivo) | mean ALT and ALP, levels of lymphocytes and monocytes in blood (T. cruzi; in vivo) | cure of chronically infected rhesus macaques (T. cruzi; in words (FIGS. 4A-4K)) | culture of parasites from blood (hemoculture) (T. cruzi; [1]) | parasite DNA in blood (PCR) (T. cruzi; [1]) | efficacy / cure (T. cruzi; naturally infected NHPs, 30 mg/kg, 60 days) | antibody levels to recombinant T. cruzi proteins (anti-T. cruzi antibodies) | parasite mRNA in T. cruzi-infected host cells (T. cruzi mRNA)
Cc1c(C(=O)N[C@H](C(=O)OCC2CCOCC2)C(C)C)ccc2c1B(O)OC2 [AN15368] | negative | no overt safety or reproductive health concerns; also recorded: no overt toxicity | No adverse events | mildly elevated | uniformly cures chronically infected rhesus macaques | remained negative | remained negative | 100% | declines in antibody levels | –
Cc1c(C(=O)N[C@H](C(=O)OCc2ccc(F)c(F)c2)C(C)C)ccc2c1B(O)OC2 [AN14353] | – | – | – | – | – | – | – | – | – | marked and continuing reduction in parasite mRNA
